Reference: the supplement of paper PMC11451515

System: SEM cells
Test: cell viability relative to DMSO control; higher = less cytotoxic
Conditions: 48 h
Summary of the method: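 NOMO1, SEM and P12-Ichikawa leukemia cells spent at least four passages adapting to each medium before use. They were seeded at 500 cells/well (NOMO1, SEM) or 1000 cells/well (P12-Ichikawa) in 5 μl in 1536-well plates and pin-dosed with library compounds in DMSO at 11 threefold steps from 47 μM down to 0.79 nM. After 48 h at 37°C, CellTiter-Glo One luminescence was read. Viability is reported as a percentage of the DMSO wells on each plate, with cell-free wells as background.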

[1] = HPLM + 10% dialyzed FBS, 0.000781 µM
[2] = HPLM + 10% dialyzed FBS, 0.00234 µM
[3] = HPLM + 10% dialyzed FBS, 0.00702 µM
[4] = HPLM + 10% dialyzed FBS, 0.0211 µM
[5] = HPLM + 10% dialyzed FBS, 0.0632 µM
[6] = HPLM + 10% dialyzed FBS, 0.19 µM
[7] = HPLM + 10% dialyzed FBS, 0.569 µM
[8] = HPLM + 10% dialyzed FBS, 1.71 µM
[9] = HPLM + 10% dialyzed FBS, 5.12 µM
[10] = HPLM + 10% dialyzed FBS, 15.4 µM
[11] = HPLM + 10% dialyzed FBS, 46.1 µM
[12] = RPMI 5 mM glucose + 10% FBS, 0.000781 µM
[13] = RPMI 5 mM glucose + 10% FBS, 0.00234 µM
[14] = RPMI 5 mM glucose + 10% FBS, 0.00702 µM
[15] = RPMI 5 mM glucose + 10% FBS, 0.0211 µM
[16] = RPMI 5 mM glucose + 10% FBS, 0.0632 µM
[17] = RPMI 5 mM glucose + 10% FBS, 0.19 µM
[18] = RPMI 5 mM glucose + 10% FBS, 0.569 µM
[19] = RPMI 5 mM glucose + 10% FBS, 1.71 µM
[20] = RPMI 5 mM glucose + 10% FBS, 5.12 µM
[21] = RPMI 5 mM glucose + 10% FBS, 15.4 µM
[22] = RPMI 5 mM glucose + 10% FBS, 46.1 µM
[23] = RPMI 5 mM glucose + 10% dialyzed FBS, 0.000781 µM
[24] = RPMI 5 mM glucose + 10% dialyzed FBS, 0.00234 µM
[25] = RPMI 5 mM glucose + 10% dialyzed FBS, 0.00702 µM
[26] = RPMI 5 mM glucose + 10% dialyzed FBS, 0.0211 µM
[27] = RPMI 5 mM glucose + 10% dialyzed FBS, 0.0632 µM
[28] = RPMI 5 mM glucose + 10% dialyzed FBS, 0.19 µM
[29] = RPMI 5 mM glucose + 10% dialyzed FBS, 0.569 µM
[30] = RPMI 5 mM glucose + 10% dialyzed FBS, 1.71 µM
[31] = RPMI 5 mM glucose + 10% dialyzed FBS, 5.12 µM
[32] = RPMI 5 mM glucose + 10% dialyzed FBS, 15.4 µM
[33] = RPMI 5 mM glucose + 10% dialyzed FBS, 46.1 µM

| SMILES | cell viability [1] | cell viability [2] | cell viability [3] | cell viability [4] | cell viability [5] | cell viability [6] | cell viability [7] | cell viability [8] | cell viability [9] | cell viability [10] | cell viability [11] | cell viability [12] | cell viability [13] | cell viability [14] | cell viability [15] | cell viability [16] | cell viability [17] | cell viability [18] | cell viability [19] | cell viability [20] | cell viability [21] | cell viability [22] | cell viability [23] | cell viability [24] | cell viability [25] | cell viability [26] | cell viability [27] | cell viability [28] | cell viability [29] | cell viability [30] | cell viability [31] | cell viability [32] | cell viability [33] |
| --- | --- | --- | --- | --- | --- | --- | --- | --- | --- | --- | --- | --- | --- | --- | --- | --- | --- | --- | --- | --- | --- | --- | --- | --- | --- | --- | --- | --- | --- | --- | --- | --- | --- |
| CCCCn1c(=O)n(Cc2ccccc2F)c(=O)c2nc(Cc3ccc(NC(C)=O)cc3)[nH]c21 | 101% | 98.7% | 87.6% | 109% | 104% | 84.9% | 89.8% | 97% | 98.2% | 81.1% | 93.7% | 101% | 102% | 105% | 89.5% | 90.3% | 86.9% | 88.1% | 97.6% | 92.1% | 96.1% | 99.5% | 92.9% | 91.3% | 98.7% | 81.5% | 110% | 85.5% | 85% | 99% | 97.3% | 90.9% | 91.8% |
| CN1[C@@H]2CC(OC(=O)[C@@H](CO)c3ccccc3)C[C@H]1[C@H]1O[C@H]12 (stereo partly drawn) | 85.3% | 88.7% | 91% | 84.7% | 93.5% | 106% | 102% | 110% | 108% | 102% | 98% | 80.9% | 82.9% | 80.7% | 85% | 90.6% | 113% | 96.2% | 106% | 89.2% | 97% | 97.9% | 90.2% | 88.8% | 105% | 86.3% | 96.3% | 105% | 117% | 114% | 101% | 113% | 108% |
| COC1=C(N2CCNC(C)C2)C(=CC3=C1N(\C=C(C(O)=O)/C3=O)C4CC4)F (stereo not drawn) | 74.8% | 88.8% | 83.1% | 84.2% | 51.8% | 66.3% | 55.2% | 51.2% | 13.9% | 21.6% | 18.1% | 98% | 95.1% | 116% | 96% | 53.2% | 92.3% | 58.5% | 61.7% | 44.8% | 37.9% | 25.6% | 73.7% | 73.3% | 79.9% | 83.1% | 48.8% | 60.2% | 48.7% | 38.5% | 13.4% | 26.6% | 12.2% |
| [NH2][Pt]1([NH2])[O]CC(=O)[O]1 | 78.3% | 95.6% | 96.2% | 92.2% | 91.2% | 102% | 94.4% | 97% | 108% | 96.7% | 89.7% | 104% | 100% | 110% | 96.4% | 108% | 109% | 95.5% | 101% | 103% | 88.3% | 96.3% | 75.6% | 84.2% | 85.7% | 83.6% | 88.1% | 87.7% | 76.9% | 94.9% | 79% | 91.5% | 92.3% |
| FC(F)(F)c1ccc(/C=C/c2nc(COc3ccc(CCCCn4ccnn4)cc3)co2)cc1 | 116% | 119% | 123% | 108% | 103% | 111% | 109% | 108% | 103% | 109% | 98.7% | 117% | 103% | 116% | 95.3% | 105% | 78.3% | 104% | 81% | 94.2% | 94.4% | 85.7% | 110% | 124% | 103% | 91.3% | 95.9% | 86% | 82.3% | 84.9% | 79.3% | 70.9% | 84% |
| CC(C)C(C)/C=C/C(C)C1CCC2C3=CC=C4CC(O)CCC4(C)C3CCC21C (stereo not drawn) | 92.6% | 79.7% | 86.7% | 73.2% | 82% | 77.4% | 83.7% | 76.5% | 68.6% | 81.8% | 86.4% | 99.6% | 107% | 111% | 99.8% | 97.1% | 94% | 111% | 92.9% | 98.5% | 96.1% | 102% | 88% | 107% | 95.1% | 83.1% | 107% | 91.4% | 117% | 105% | 87.2% | 88.8% | 88.3% |
